Data from US20240336896A1, “MODIFIED PRODUCER CELLS FOR EXTRACELLULAR VESICLE PRODUCTION” (LONZA SALES AG, priority 2021, published 2024).
Read-outs that look alike come from different tables or passages of the source. Values belong to the compound of their own block, whether it stands above or below them.

Legend:
[1] = tested on: HEK producer cell line producing IL-12 EVs (exoIL-12); assay: EV yield in total particles, exoIL-12 producer cells; format: cell-based
Experimental: (§1) The cells lines were treated with simvastatin (5 nM and 10 nM) for 10 days prior to EV purification.

CHO-S cells = assay: EV yield in total particles from CHO cells; format: cell-based, Chinese Hamster
Experimental: Table 10 quantifies the results. A similar 5.6-fold increase relative to untreated controls was also observed in CHO-S cells six days after being treated with 6 nM simvastatin.

HiBit reporter cell line [2] = assay: viability and viable cell density (VCD) of treated producer cells
[3] = tested on: HEK producer cell line producing Protein X EVs (PrX); assay: EV yield in total particles, PrX producer cells; format: cell-based
Experimental: as §1

[4] = tested on: 1919 HiBit reporter cell line; assay: HiBit luciferase reporter assay of EV production, agent supplemented into media; format: cell-based
human adipose MSC cells = assay: relative EV yield by AEX UHPLC peak areas of clarified conditioned media; format: cell-based; settings: 6 nM simvastatin, 4 days, serum free media
Experimental: When cultures reached approximately 50% confluence, the media was removed and replaced with the identical growth media (control) or the growth media supplemented with […] simvastatin (sim treated). The cultures were incubated for an additional 4 days at which point the conditioned media was collected and the cell debris removed by centrifugation. The clarified condition media was then analyzed by anion exchange (AEX) ultra high-performance liquid chromatography (UHPLC), and the relative amount of extracellular vesicles in each sample was estimated by comparing peak areas. Table 11 quantifies the results, showing a 2.6 fold increase in EV production by adipose MSC cells treated with 6 nM simvastatin.

HiBit reporter cell line [5] = settings: for Day 4 VCD / Day 4 Viability: 4 day; for D6 VCD / Day 6 Viability: 6 day
[6] = tested on: primary murine polymorphonuclear neutrophils, RAW264.7 monocytic cells, and 4T1 murine mammary cancer cells; settings: Baek et al., Endocrinology 2021; cited from earlier work

SMILES: Cc1nc[nH]c1CN1CCN(C(=O)N[C@@H](CC(C)C)C(=O)O)[C@@H](Cc2ccccc2)C1=O [GGTI-2418]
effect on cell density (VCD) (HiBit reporter cell line [2]; days 2, 4, 6, and 8): no effect
effect on exosome production (RLU) ([4]; days 2, 4, 6, and 8): no effect

SMILES: C[C@@H](CO)CCC[C@@H](C)[C@H]1CC[C@H]2[C@@H]3CC=C4C[C@@H](O)CC[C@]4(C)[C@H]3CC[C@]12C [27-hydroxycholesterol]
exosome production [6]: increased exosome production

SMILES: CC(C)c1nc(N(C)S(C)(=O)=O)nc(-c2ccc(F)cc2)c1/C=C/[C@@H](O)C[C@@H](O)CC(=O)O [rosuvastatin]
EV expression (luminescence/cell) ([4]; 10, 25, 50, 75, 100 nM, four days post induction): dose-dependent increase

Now from value to compound, other results behind:

IC50 ([4]; simvastatin supplemented into the media, inhibited quantity not stated): 10 to 20 nM
SMILES: CCC(C)(C)C(=O)O[C@H]1C[C@@H](C)C=C2C=C[C@H](C)[C@H](CC[C@@H]3C[C@@H](O)CC(=O)O3)[C@H]21 [Simvastatin, simvastatin]
Relationship to Control ([1]; exoIL-12, 5 nM simvastatin for 10 days): 3.5x^
Total Particles ([1]; exoIL-12, 5 nM simvastatin for 10 days prior to EV purification): 1.79E+11
Relationship to Control ([1]; exoIL-12, 10 nM simvastatin for 10 days): 7x
Total Particles ([1]; exoIL-12, 10 nM simvastatin for 10 days prior to EV purification): 3.50E+11
increase in EV yield relative to untreated controls (CHO-S cells; CHO-S cells six days after being treated with 6 nM simvastatin): 5.6 fold
Relationship to Control (CHO-S cells; CHO-S, 10 nM simvastatin): 5.6X
Total Particles (CHO-S cells; CHO-S, 10 nM simvastatin): 2.22E+11
D6 VCD (HiBit reporter cell line [2]; 2 nM simvastatin): 17.00 e6/ml
Day 4 VCD (HiBit reporter cell line [2]; 2 nM simvastatin): 10.41 e6/ml
Day 4 Viability (HiBit reporter cell line [2]; 2 nM simvastatin): 94.9%
Day 6 Viability (HiBit reporter cell line [2]; 2 nM simvastatin): 95.5%
D6 VCD (HiBit reporter cell line [2]; 5 nM simvastatin): 15.5 e6/ml
Day 4 VCD (HiBit reporter cell line [2]; 5 nM simvastatin): 9.16 e6/ml
Day 4 Viability (HiBit reporter cell line [2]; 5 nM simvastatin): 92.7%
Day 6 Viability (HiBit reporter cell line [2]; 5 nM simvastatin): 95.7%
tolerability of producer cells (HiBit reporter cell line [2]; 10 nM dose, batch refeed in shake flask, duration of the study): well tolerated
D6 VCD (HiBit reporter cell line [2]; 10 nM simvastatin): 12.41 e6/ml
Day 4 VCD (HiBit reporter cell line [2]; 10 nM simvastatin): 8.66 e6/ml
Day 4 Viability (HiBit reporter cell line [2]; 10 nM simvastatin): 88.8%
Day 6 Viability (HiBit reporter cell line [2]; 10 nM simvastatin): 93.6%
viable cell density (VCD) (HiBit reporter cell line [2]; simvastatin alone in HiBit cultures, Example 7): characteristic decrease
Relationship to Control ([3]; 5 nM simvastatin for 10 days): 4x
Total Particles ([3]; 5 nM simvastatin for 10 days prior to EV purification): 4.5E+11
Luciferase relative to control ([4]; 10 nM simvastatin, Day 2): 2.3
Luciferase relative to control ([4]; 10 nM simvastatin, Day 3): 4.7
Luciferase relative to control ([4]; 10 nM simvastatin, Day 6): 9.6
Luciferase relative to control ([4]; 50 nM simvastatin, Day 2): 5.3
FOLD INCREASE PER CELL EV PRODUCTION (human adipose MSC cells): 2.6 X
FOLD INCREASE PER CELL EV PRODUCTION (human adipose MSC cells; listed as Sim): 2.6X

Day 4 VCD (HiBit reporter cell line [5]): 5.14 e6/ml
Day 4 VCD (HiBit reporter cell line [5]; 5 μM): 7.73 e6/ml
D6 VCD (HiBit reporter cell line [5]; 5 μM): 11.97 e6/ml
D6 VCD (HiBit reporter cell line [5]; 10 μM): 5.13 e6/ml
SMILES: CN(C)C(=O)N[C@H]1CC[C@H](CCN2CCN(c3cccc(Cl)c3Cl)CC2)CC1 [Cariprazine, cariprazine]
Day 4 Viability (HiBit reporter cell line [5]; 5 μM): 95.6%
Day 4 Viability (HiBit reporter cell line [5]; 10 μM): 89.7%
Day 6 Viability (HiBit reporter cell line [5]; 5 μM): 92.4%
Day 6 Viability (HiBit reporter cell line [5]; 10 μM): 81.0%
Luciferase relative to control ([4]; 2 μM cariprazine, Day 2): 0.8
Luciferase relative to control ([4]; 2 μM cariprazine, Day 3): 1.8
Luciferase relative to control ([4]; 5 μM cariprazine, Day 2): 1
Luciferase relative to control ([4]; 5 μM cariprazine, Day 3): 2.6
Luciferase relative to control ([4]; 10 μM cariprazine, Day 2): 0.8
Luciferase relative to control ([4]; 10 μM cariprazine, Day 3): 2.4

impact on cell culture VCD (HiBit reporter cell line [5]): no impact
SMILES: CC(C)CCC[C@@H](C)[C@H]1CC[C@H]2[C@@H]3CC=C4C[C@@H](O)CC[C@]4(C)[C@H]3CC[C@]12C [synthetic cholesterol, cholesterol]
impact on exosome production ([4]; elevated cholesterol alone): no impact
simvastatin induction of EV production ([4]; supplemental cholesterol together with simvastatin, still higher than control cultures lacking statin): largely attenuated
